The source of these data is patent publication US20130261077A1 (priority 2012, published 2013).

Where only a bound is given, the exact number is not on record here.

As a reminder, the IC50 is the midpoint of a concentration-inhibition curve. One may read the Kd as the constant that tells how readily two partners part at equilibrium. A low value points to tighter binding.

For this experiment, the target named is T1, FimH-CRD (Escherichia coli, UniProt P08191).
T1 construct: The first 177 amino acids of the FimH protein; thrombin tag (printed as 'fusion protein with thrombin') (cleaved yes); made in house; host or cells: bacteria (pET21b plasmid)
T1 sequence (P08191 22-177): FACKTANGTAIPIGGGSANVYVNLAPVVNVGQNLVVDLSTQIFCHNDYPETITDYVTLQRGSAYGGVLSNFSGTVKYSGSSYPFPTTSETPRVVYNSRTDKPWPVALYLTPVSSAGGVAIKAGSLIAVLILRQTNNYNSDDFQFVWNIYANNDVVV
Kind of experiment: Competitive binding assay by fluorescence polarization, assay 1 (compounds prepared by manual serial dilution). In outline:
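Fluorescence-polarization competition of 5 nM Alexa 647 mannoside probe with 60 nM FimH-CRD (first 177 residues, tag removed) in Tris-Cl pH 7.0, NaCl, EDTA, β-ME, BSA, 2.5% DMSO, 5 h at RT in the dark. Twelve-point 3-fold titrations (0.4 nM–75 μM) in duplicate; Kd interpolated from displacement curves.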
Background: Fluorescence polarisation rises when a labelled molecule tumbles more slowly, as on binding a larger partner.
Regarding `CNC(=O)c1cccc(Oc2ccc([C@H]3O[C@H](CO)[C@@H](O)[C@H](O[C@H]4O[C@H](CO)[C@@H](O)[C@H](O)[C@@H]4O)[C@@H]3O)cc2)c1` [Compound 268, 3-[4-[(2R,3R,4R,5R,6R)-3,5-Dihydroxy-6-(hydroxymethyl)-4-[(2R,3S,4S,5S,6R)-3,4,5-trihydroxy-6-(hydroxymethyl)tetrahydropyran-2-yl]oxy-tetrahydropyran-2-yl]phenoxy]-N-methyl-benzamide], the concentration for half-maximal inhibition (IC50) is 77 nM and binding was put at a Kd of 19 ± 3.8 nM.
For `CNC(=O)c1cccc(Oc2cccc([C@H]3O[C@H](CO)[C@@H](O)[C@H](O[C@H]4O[C@H](CO)[C@@H](O)[C@H](O)[C@@H]4O)[C@@H]3O)c2)c1` [Compound 269, 3-[3-[(2R,3R,4R,5R,6R)-3,5-Dihydroxy-6-(hydroxymethyl)-4-[(2R,3S,4S,5S,6R)-3,4,5-trihydroxy-6-(hydroxymethyl)tetrahydropyran-2-yl]oxy-tetrahydropyran-2-yl]phenoxy]-N-methyl-benzamide], in that order: 10 nM and under 5 nM.
For `OC[C@H]1O[C@H](O[C@@H]2[C@H](O)[C@@H](c3cccc(Oc4ccc(F)cc4)c3)O[C@H](CO)[C@H]2O)[C@@H](O)[C@@H](O)[C@@H]1O` [Compound 270, (2R,3S,4S,5S,6R)-2-[(2R,3R,4R,5R,6R)-2-[3-(4-Fluorophenoxy)phenyl]-3,5-dihydroxy-6-(hydroxymethyl)tetrahydropyran-4-yl]oxy-6-(hydroxymethyl)tetrahydropyran-3,4,5-triol], in that order: 54 nM and 14.4 ± 2.6 nM.
The corresponding values for `OC[C@H]1O[C@H](O[C@@H]2[C@H](O)[C@@H](c3cccc(Oc4ccccc4)c3)O[C@H](CO)[C@H]2O)[C@@H](O)[C@@H](O)[C@@H]1O` [Compound 271, (2R,3S,4S,5S,6R)-2-[(2R,3R,4R,5R,6R)-3,5-Dihydroxy-2-(hydroxymethyl)-6-(3-phenoxyphenyl)tetrahydropyran-4-yl]oxy-6-(hydroxymethyl)tetrahydropyran-3,4,5-triol] are 27 nM and 14.7 ± 7 nM.
Take `Cc1nnc(-c2ccc(Oc3cccc([C@H]4O[C@H](CO)[C@@H](O)[C@H](O[C@H]5O[C@H](CO)[C@@H](O)[C@H](O)[C@@H]5O)[C@@H]4O)c3)cc2)o1` [Compound 272, (2R,3S,4S,5S,6R)-2-[(2R,3R,4R,5R,6R)-3,5-Dihydroxy-2-(hydroxymethyl)-6-[3-[4-(5-methyl-1,3,4-oxadiazol-2-yl)phenoxy]phenyl]tetrahydropyran-4-yl]oxy-6-(hydroxymethyl)tetrahydropyran-3,4,5-triol]: the IC50 was found to be 46 nM and binding was put at a Kd of 12.7 ± 7.7 nM.
Turning to `Cc1cc(C)cc(Oc2cccc([C@H]3O[C@H](CO)[C@@H](O)[C@H](O[C@H]4O[C@H](CO)[C@@H](O)[C@H](O)[C@@H]4O)[C@@H]3O)c2)c1` [Compound 274, (2R,3S,4S,5S,6R)-2-[(2R,3R,4R,5R,6R)-2-[3-(3,5-Dimethylphenoxy)phenyl]-3,5-dihydroxy-6-(hydroxymethyl)tetrahydropyran-4-yl]oxy-6-(hydroxymethyl)tetrahydropyran-3,4,5-triol], the IC50 turned out to be 34 nM and the equilibrium dissociation constant (Kd) came out at 43.1 ± 53 nM.
With `CNC(=O)c1ccc(-c2cccc([C@H]3O[C@H](CO)[C@@H](O)[C@H](O[C@H]4O[C@H](CO)[C@@H](O)[C@H](O)[C@@H]4O)[C@@H]3O)c2)cc1` [Compound 275, 4-[3-[(2R,3R,4R,5R,6R)-3,5-Dihydroxy-6-(hydroxymethyl)-4-[(2R,3S,4S,5S,6R)-3,4,5-trihydroxy-6-(hydroxymethyl)tetrahydropyran-2-yl]oxy-tetrahydropyran-2-yl]phenyl]-N-methyl-benzamide], the half-inhibitory concentration (IC50) is 28 nM and the dissociation constant (Kd) turned out to be 26.8 ± 15.4 nM.
The corresponding values for `CS(=O)(=O)c1ccc(-c2cccc([C@H]3O[C@H](CO)[C@@H](O)[C@H](O[C@H]4O[C@H](CO)[C@@H](O)[C@H](O)[C@@H]4O)[C@@H]3O)c2)cc1` [Compound 276, (2R,3S,4S,5S,6R)-2-[(2R,3R,4R,5R,6R)-3,5-dihydroxy-2-(hydroxymethyl)-6-[3-(4-methylsulfonylphenyl)phenyl]tetrahydropyran-4-yl]oxy-6-(hydroxymethyl)tetrahydropyran-3,4,5-triol] are 49 nM and 11.1 ± 3.4 nM.
The corresponding values for `CNC(=O)c1cc(C(=O)NC)cc(-c2cccc([C@H]3O[C@H](CO)[C@@H](O)[C@H](O[C@H]4O[C@H](CO)[C@@H](O)[C@H](O)[C@@H]4O)[C@@H]3O)c2)c1` [Compound 277, 5-[3-[(2R,3R,4R,5R,6R)-3,5-Dihydroxy-6-(hydroxymethyl)-4-[(2R,3S,4S,5S,6R)-3,4,5-trihydroxy-6-(hydroxymethyl)tetrahydropyran-2-yl]oxy-tetrahydropyran-2-yl]phenyl]-N1,N3-dimethyl-benzene-1,3-dicarboxamide] are 47 nM and 10.7 ± 3.9 nM.
The corresponding values for `OC[C@H]1O[C@H](O[C@@H]2[C@H](O)[C@@H](c3cccc(C4CCCCC4)c3)O[C@H](CO)[C@H]2O)[C@@H](O)[C@@H](O)[C@@H]1O` [Compound 278, (2R,3S,4S,5S,6R)-2-[(2R,3R,4R,5R,6R)-2-(3-Cyclohexylphenyl)-3,5-dihydroxy-6-(hydroxymethyl)tetrahydropyran-4-yl]oxy-6-(hydroxymethyl)tetrahydropyran-3,4,5-triol] are 64 nM and 12.7 ± 0.9 nM.
`OC[C@H]1O[C@H](O[C@@H]2[C@H](O)[C@@H](c3cccc(-c4cncnc4)c3)O[C@H](CO)[C@H]2O)[C@@H](O)[C@@H](O)[C@@H]1O` [Compound 279, (2R,3S,4S,5S,6R)-2-[(2R,3R,4R,5R,6R)-3,5-Dihydroxy-2-(hydroxymethyl)-6-(3-pyrimidin-5-ylphenyl)tetrahydropyran-4-yl]oxy-6-(hydroxymethyl)tetrahydropyran-3,4,5-triol] came in with a half-inhibitory concentration (IC50) of 51 nM and a Kd of 9.9 ± 1.1 nM.
`Cn1cnc2ccc(-c3cccc([C@H]4O[C@H](CO)[C@@H](O)[C@H](O[C@H]5O[C@H](CO)[C@@H](O)[C@H](O)[C@@H]5O)[C@@H]4O)c3)cc21` [Compound 280, (2R,3S,4S,5S,6R)-2-[(2R,3R,4R,5R,6R)-3,5-Dihydroxy-2-(hydroxymethyl)-6-[3-(3-methylbenzimidazol-5-yl)phenyl]tetrahydropyran-4-yl]oxy-6-(hydroxymethyl)tetrahydropyran-3,4,5-triol (Trifluoroacetate Ion (1))] displayed a half-maximal inhibitory concentration (IC50) of 59 nM and a dissociation constant Kd of 18.1 ± 7.1 nM.
The molecule `C=CC[C@H]1O[C@H](CO)[C@@H](O)[C@H](O[C@H]2O[C@H](CO)[C@@H](O)[C@H](O)[C@@H]2O)[C@@H]1O` [Compound 281, (2R,3S,4S,5S,6R)-2-[(2R,3R,4R,5R,6R)-2-Allyl-3,5-dihydroxy-6-(hydroxymethyl)tetrahydropyran-4-yl]oxy-6-(hydro I amymethyl)tetrahydropyran-3,4,5-triol] returned a half-maximal inhibitory concentration (IC50) of 216 nM and a Kd of 51.1 ± 7.6 nM.
For `OC[C@H]1O[C@H](O[C@H]2[C@H](O)[C@@H](CO)O[C@H](C/C=C/C3CCCCC3)[C@H]2O)[C@@H](O)[C@@H](O)[C@@H]1O` [Compound 282, (2R,3S,4S,5S,6R)-2-[(2R,3R,4R,5R,6R)-2-[(E)-3-Cyclohexylallyl]-3,5-dihydroxy-6-(hydroxymethyl)tetrahydropyran-4-yl]oxy-6-(hydroxymethyl)tetrahydropyran-3,4,5-triol], in that order: 212 nM and 40.6 ± 0.03 nM.
For `COC(=O)c1ccc(CCC[C@H]2O[C@H](CO)[C@@H](O)[C@H](O[C@H]3O[C@H](CO)[C@@H](O)[C@H](O)[C@@H]3O)[C@@H]2O)cc1` [Compound 283, Methyl 4-[3-[(2R,3R,4R,5R,6R)-3,5-dihydroxy-6-(hydroxymethyl)-4-[(2R,3S,4S,5S,6R)-3,4,5-trihydroxy-6-(hydroxymethyl)tetrahydropyran-2-yl]oxy-tetrahydropyran-2-yl]propyl]benzoate], in that order: 27 nM and 10.8 ± 4.1 nM.
`COc1cccc([C@H]2O[C@H](CO)[C@@H](O)[C@H](O[C@H]3O[C@H](CO)[C@@H](O)[C@H](O)[C@@H]3O)[C@@H]2O)c1` [Compound 284, (2R,3S,4S,5S,6R)-2-[(2R,3R,4R,5R,6R)-3,5-Dihydroxy-2-(hydroxymethyl)-6-(3-methoxyphenyl)tetrahydropyran-4-yl]oxy-6-(hydroxymethyl)tetrahydropyran-3,4,5-triol] had a concentration for half-maximal inhibition (IC50) of 49 nM and a Kd of 166 ± 96.5 nM.
For `OC[C@H]1O[C@H](O[C@@H]2[C@H](O)[C@@H](c3cccc(OCC4CCCC4)c3)O[C@H](CO)[C@H]2O)[C@@H](O)[C@@H](O)[C@@H]1O` [Compound 285, (2R,3S,4S,5S,6R)-2-[(2R,3R,4R,5R,6R)-2-[3-(Cyclopentylmethoxy)phenyl]-3,5-dihydroxy-6-(hydroxymethyl)tetrahydropyran-4-yl]oxy-6-(hydroxymethyl)-tetrahydropyran-3,4,5-triol], the IC50 was determined as 80 nM and the dissociation constant (Kd) stood at 14.7 ± 1.2 nM.
The corresponding values for `OC[C@H]1O[C@H](O[C@@H]2[C@H](O)[C@@H](c3cccc(OCCF)c3)O[C@H](CO)[C@H]2O)[C@@H](O)[C@@H](O)[C@@H]1O` [Compound 287, (2R,3S,4S,5S,6R)-2-[(2R,3R,4R,5R,6R)-2-[3-(2-Fluoroethoxy)phenyl]-3,5-dihydroxy-6-(hydroxymethyl)tetrahydropyran-4-yl]oxy-6-(hydroxymethyl)tetrahydropyran-3,4,5-triol] are 107 nM and 32.2 ± 8.5 nM.
The corresponding values for `CNC(=O)COc1cccc([C@H]2O[C@H](CO)[C@@H](O)[C@H](O[C@H]3O[C@H](CO)[C@@H](O)[C@H](O)[C@@H]3O)[C@@H]2O)c1` [Compound 288, 2-[3-[(2R,3R,4R,5R,6R)-3,5-dihydroxy-6-(hydroxymethyl)-4-[(2R,3S,4S,5S,6R)-3,4,5-trihydroxy-6-(hydroxymethyl)tetrahydropyran-2-yl]oxy-tetrahydropyran-2-yl]phenoxy]-N-methyl-acetamide] are 46 nM and 28.7 ± 25.6 nM.
